Source: PubChem BioAssay AID330 (DTP/NCI, 2004)
Where “and” joins values, the source holds several entries; their conditions need not be identical. Equal values may be shown once. Inconclusive results and toxic doses are left out. The calls were made as follows: active = survival T/C of 150% or more; inactive = T/C below 125% in these data.

Tested on: P388 leukemia ip, CD2F1 mice, survival T/C
Assay: NCI In Vivo Anticancer Drug Screen. Data for tumor model P388 Leukemia (intraperitoneal) in CD2F1 (CDF1) mice
Details: endpoint: median survival time, higher = longer survival
Procedure, shortened: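 Mice carrying the transplanted tumor received test compound or vehicle. Survival was recorded in each group, and the value is the treated-group measurement divided by that of the vehicle-treated control group.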

[1] = dose: 6.25 mg/kg/injection, schedule: Q04DX003 (ip), vehicle: saline
[2] = dose: 100.0 mg/kg/injection, schedule: Q01DX009 (ip), vehicle: saline with Tween-80
[3] = dose: 200.0 mg/kg/injection, schedule: Q01DX009 (ip), vehicle: saline with Tween-80
[4] = dose: 50.0 mg/kg/injection, schedule: Q01DX005 (ip), vehicle: saline with Tween-80
[5] = dose: 100.0 mg/kg/injection, schedule: Q01DX005 (ip), vehicle: saline with Tween-80
[6] = dose: 200.0 mg/kg/injection, schedule: Q01DX005 (ip), vehicle: saline with Tween-80
[7] = dose: 60.0 mg/kg/injection, schedule: Q01DX005 (ip), vehicle: saline
[8] = dose: 120.0 mg/kg/injection, schedule: Q01DX005 (ip), vehicle: saline
[9] = dose: 240.0 mg/kg/injection, schedule: Q01DX005 (ip), vehicle: saline
[10] = dose: 50.0 mg/kg/injection, schedule: Q01DX009 (ip), vehicle: saline
[11] = dose: 100.0 mg/kg/injection, schedule: Q01DX009 (ip), vehicle: saline
[12] = dose: 200.0 mg/kg/injection, schedule: Q01DX009 (ip), vehicle: saline

Measured: T/C

Nc1ccn(C2OC(C(OC3OC(CO)C(O)C(N)C3O)C(O)C(O)C(O)C(O)CO)C(N)C(O)C2O)c(=O)n1 (centres undefined)
inactive: dose: 0.1 mg/kg/injection, schedule: Q01DX005 (ip), vehicle: saline 100 % of control | dose: 0.2 mg/kg/injection, schedule: Q01DX005 (ip), vehicle: saline 102 % of control | dose: 0.4 mg/kg/injection, schedule: Q01DX005 (ip), vehicle: saline 107 % of control | dose: 0.8 mg/kg/injection, schedule: Q01DX005 (ip), vehicle: saline 102 % of control

CCC[CH2][Sn]([F])([F])[CH2]CCC
inactive: [1] 107 % of control | dose: 12.5 mg/kg/injection, schedule: Q04DX003 (ip), vehicle: saline 114 % of control | dose: 25.0 mg/kg/injection, schedule: Q04DX003 (ip), vehicle: saline 118 % of control

NC1CONC1=O (centres undefined)
inactive: [2] 109 % of control | dose: 100.0 mg/kg/injection, schedule: Q04DX003 (ip), vehicle: saline with Tween-80 100 % of control | [3] 100 % of control | dose: 200.0 mg/kg/injection, schedule: Q04DX003 (ip), vehicle: saline with Tween-80 109 % of control | dose: 400.0 mg/kg/injection, schedule: Q01DX009 (ip), vehicle: saline with Tween-80 100 % of control | dose: 400.0 mg/kg/injection, schedule: Q04DX003 (ip), vehicle: saline with Tween-80 109 % of control

CN(/N=C/c1ccccc1)C(N)=Nc1ccccc1
inactive: [4] 119 % of control | [5] 107 % of control | [6] 104 % of control

COC(=O)C1=C(O)C(C(=O)OC)=C2C1=C(C(=O)OC)C(=O)C2C(=O)OC (centres undefined)
inactive: dose: 50.0 mg/kg/injection, schedule: Q01DX005 (ip), vehicle: water 97 % of control | dose: 100.0 mg/kg/injection, schedule: Q01DX005 (ip), vehicle: water 98 % of control | dose: 200.0 mg/kg/injection, schedule: Q01DX005 (ip), vehicle: water 95 % of control

O=C(c1ccccc1)c1nn(-c2ccccc2)c(=O)cc1-c1ccccc1
inactive: [4] 99 % of control | [5] 100 % of control | [6] 100 % of control

NC(=O)CCCCCOc1ccc(OC2OC(CO)C(O)C(O)C2O)cc1 (centres undefined)
inactive: dose: 100.0 mg/kg/injection, schedule: Q04DX002 (ip), vehicle: saline with Tween-80 100 % of control | dose: 200.0 mg/kg/injection, schedule: Q04DX002 (ip), vehicle: saline with Tween-80 102 % of control | dose: 400.0 mg/kg/injection, schedule: Q04DX002 (ip), vehicle: saline with Tween-80 104 % of control

C#CCC(C(=O)OC)N(CC)CC (centres undefined)
inactive: [7] 107 % of control | [8] 111 % of control | [9] 120 % of control

NC(CC(=O)O)C(=O)OCc1ccccc1 (centres undefined)
inactive: dose: 25.0 mg/kg/injection, schedule: Q01DX009 (ip), vehicle: saline 97 % of control | [10] 100 % of control | [11] 100 % of control | [12] 98 % of control

CC1(C)OC(=O)C(CC(=O)O)O1 (centres undefined)
inactive: [7] 105 % of control | [8] 100 % of control | [9] 100 % of control

O=C(NCCCl)Nc1ccccc1C(=O)O
inactive: dose: 50.0 mg/kg/injection, schedule: Q01DX009 (ip), vehicle: saline with Tween-80 90 % of control | [2] 95 % of control | [3] 99 % of control

CC(C)(C)C(=O)Oc1ccc(N=C(N)N)cc1
inactive: dose: 50.0 mg/kg/injection, schedule: Q01DX005 (ip), vehicle: saline 102 % of control | dose: 100.0 mg/kg/injection, schedule: Q01DX005 (ip), vehicle: saline 104 % of control | dose: 200.0 mg/kg/injection, schedule: Q01DX005 (ip), vehicle: saline 105 % of control

CSCC[C@H](NC(C)=O)B1OCCO1
inactive: [7] 100 % of control | [8] 104 % of control | [9] 109 % of control

O=CC(=O)Cc1ccccc1
inactive: [10] 99 % of control and 98 % of control | [11] 105 % of control and 98 % of control | [12] 100 % of control and 92 % of control | dose: 400.0 mg/kg/injection, schedule: Q01DX009 (ip), vehicle: saline 99 % of control and 100 % of control

CCOc1cccs1
inactive: dose: 60.0 mg/kg/injection, schedule: Q01DX005 (ip), vehicle: saline with Tween-80 102 % of control | dose: 120.0 mg/kg/injection, schedule: Q01DX005 (ip), vehicle: saline with Tween-80 100 % of control

N=C(N)c1ccc(/C=C/c2cc3ccc(C(=N)N)cc3[nH]2)cc1
inactive: [1] 113 % of control

CCC1(C(C)C)NC(=O)NC1=O (centres undefined)
inactive: dose: 50.0 mg/kg/injection, schedule: Q01DX005 (ip), vehicle: Klucel (hydroxypropylcellulose) (HPC) 106 % of control | dose: 100.0 mg/kg/injection, schedule: Q01DX005 (ip), vehicle: Klucel (hydroxypropylcellulose) (HPC) 104 % of control | dose: 200.0 mg/kg/injection, schedule: Q01DX005 (ip), vehicle: Klucel (hydroxypropylcellulose) (HPC) 106 % of control
